Experimental data published in US20100215588A1, “THERAPEUTIC DELIVERY OF INHIBITORY NUCLEIC ACID MOLECULES TO THE RESPIRATORY SYSTEM” (priority 2007, published 2010).
“Also recorded” adds a separate entry of the source.

Tests used:
Type in all cases: in vivo, cynomolgus monkeys
[1] = Semi-quantitative distribution of I5NP siRNA in lung (hybridization assay)
Procedure: (§1) On Day 15 of the study, two of the available animals (101 and 102) were administered a target dose of 35 mg/kg of a mixture of I5NP and REDD14Cy3.5 (fluorescence-labelled) siRNA via an oronasal mask as a nebulized aerosol generated by the Aeroneb device. A 2.0 L/min dilution airflow was used. The total dose of siRNA administered was calculated, based on the bodyweights and measured respiratory minute volumes of the animals, and on the achieved output of the Aeroneb device using the formulation concentration of 40 mg/mL of siRNA. The administered dose was adjusted by changing the exposure times for the animals
(§2) On Day 35 of the Study, the three remaining main study animals (103 to 105) were administered a target dose of 35 mg/kg of I5NP siRNA via an oronasal mask as a nebulized aerosol generated by the Aeroneb device. A 2.0 L/min dilution airflow was used. The total dose administered was calculated, based on the bodyweights and measured respiratory minute volumes of the animals, and on the achieved output of the Aeroneb device using the formulation concentration of 40 mg/mL. The administered dose was adjusted by changing the exposure times for the animals.
At the time of necropsy following Treatment 2, the lungs of animal 101 were removed from the animal. The lungs were separated into individual lobes. The bronchi/bronchioles and immediately surrounding regions of each lobe were dissected out as carefully as was practicable and pooled, per lobe. The remaining tissue areas were pooled, per lobe. Each pooled sample (i.e. bronchi/bronchioles and remaining tissue for each lobe) was stored deep-frozen (−80° C.) for analysis via hybridization assay. Lung samples from animal 101 were tracked using the Watson LIMS system.
At each specified time of necropsy following Treatment 3, the lungs of animals 103, 104 or 105 were removed from the animals. Each set of lungs were separated into individual lobes. The bronchi/bronchioles and immediately surrounding regions of each lobe were dissected out as carefully as was practicable and pooled, per lobe. The remaining tissue areas were pooled, per lobe. […]
All lung samples from animal 101 (i.e. left cranial lobe, bronchioles and remainder; left caudal lobe, bronchioles and remainder; right cranial lobe, bronchioles and remainder; right middle lobe, bronchioles and remainder; right caudal lobe, bronchioles and remainder and right accessory lobe, bronchioles and remainder) were analyzed for I5NP siRNA concentration. For animals 103, 104 and 105, left cranial lobe (bronchioles and remainder) and right caudal lobe (bronchioles and remainder) were analyzed for I5NP siRNA concentration. […] The results obtained for lung samples were considered as semi-quantitative.

[2] = Qualitative distribution of REDD14Cy3.5 siRNA in lung and kidney (fluorescence analysis); settings: after oronasal inhalation
Procedure: as §1
At the time of necropsy following Treatment 2, the lungs, bronchi and trachea of animal 102 were removed from the animal. The lungs were perfused with 4% paraformaldehyde, introduced using a syringe, via the trachea and/or bronchus and stored in this fixative at ambient temperature for a period of approximately 21 hours. Following this, as much as possible of the original fixative fluid was withdrawn by syringe via the trachea/bronchus and replaced with 0.2% paraformaldehyde. The fixed lungs were analyzed for fluorescence distribution.
At the time of necropsy following Treatment 2, the right kidney of animal 102 was removed from the animal. The kidney was dissected into quarters by making one longitudinal and one transverse cut, each to pass through the hilus, and then immersed in 4% paraformaldehyde and refrigerated for approximately 21 hours. Following this, the fixing solution was changed to 0.2% paraformaldehyde and the kidney was analyzed for fluorescence distribution.
Following Treatment 2, lung and kidney samples from animal 102 were analyzed for distribution of fluorescence (from REDD14Cy3.5 siRNA). The results were considered to be qualitative.

[3] = Clinical observations after inhalation doses of siRNA
Procedure: Male cynomolgus monkeys were administered single oronasal inhalation doses of a nebulised aerosol formulation of fluorescent-labelled REDD14Cy3.5 and/or I5NP siRNAs. Following dosing, the concentration of I5NP in plasma, the non-compartmental disposition kinetics of I5NP in plasma, the qualitative distribution of REDD14Cy3.5 in lungs and the semi-quantitative distribution of I5NP in lungs were determined.
Animals were treated with test aerosols using a pediatric anesthetic-type oronasal face mask fitted with inlet and outlet tubes and a breathing loop. During treatment, animals were placed in a restraint sling. The test atmospheres were generated using an Aeroneb (Aerogen) nebulizer, and assessed for output as described below. The level of exposure to the test article was achieved by varying the duration of exposure.
as §2, with “Day 1” for “Day 35”, “the study, four of” for “the Study,”, “the available monkeys (101” for “the three remaining main study animals (103”, “to 104)” for “to 105)”, “animals. […]” for “animals.”

Substance: I5NP: exemplary p53 inhibiting siRNA; sense GAGAAUAUUUCACCCUUCA, antisense UGAAGGGUGAAAUAUUCUC (chemistry not given here)
- I5NP concentration in bronchioles and peripheral lung tissues ([1]; Treatment 2 (I5NP:REDD14Cy3.5 9:1), animal 101, approximately 30 minutes post-end of dosing, all 6 lobes, semi-quantitative): found in high concentrations in both bronchioles and in peripheral tissues of all lobes of each lung
- I5NP concentration, peripheral tissues versus bronchiolar samples ([1]; Treatment 2, animal 101, approximately 30 minutes post-end of dosing): generally higher in the peripheral tissues than in the bronchiolar samples
- relative concentrations in bronchiolar and peripheral lung tissues over time ([1]; Treatment 3, animals 103, 104, 105, 6, 24 and 72 h post-end of dosing, left cranial and right caudal lobes): still detectible at 72 hours post-end of dosing
- levels in lungs compared with plasma ([1]; all time points post-dose): at all times greater than those in plasma; also recorded: higher than in plasma
- distribution in lung, I5NP (hybridization) and REDD14Cy3.5 (fluorescence) compared [2]: little difference in the distribution of the two test articles in lung
- macroscopic findings in organs and tissues ([3]; necropsy after inhalation doses): of no toxicological significance
- treatment-related clinical signs ([3]; single oronasal inhalation doses, target 35 mg/kg): No treatment-related clinical signs were observed
